Measurements published in patent US8623857B2, “N-phenyl imidazole carboxamide inhibitors of 3-phosphoinositide-dependent protein kinase-1” (Merck Sharp & Dohme Corp., priority 2010, dated 2014).
pIC50: −log10 of the molar value.

Molecular target: T1, recombinant human PDK1 (Homo sapiens, UniProt O15530)
T1 construct: containing amino acids 51-556 of the human PDK1 enzyme; made in house; host or cells: Sf9 insect cells
T1 sequence (O15530 51-556): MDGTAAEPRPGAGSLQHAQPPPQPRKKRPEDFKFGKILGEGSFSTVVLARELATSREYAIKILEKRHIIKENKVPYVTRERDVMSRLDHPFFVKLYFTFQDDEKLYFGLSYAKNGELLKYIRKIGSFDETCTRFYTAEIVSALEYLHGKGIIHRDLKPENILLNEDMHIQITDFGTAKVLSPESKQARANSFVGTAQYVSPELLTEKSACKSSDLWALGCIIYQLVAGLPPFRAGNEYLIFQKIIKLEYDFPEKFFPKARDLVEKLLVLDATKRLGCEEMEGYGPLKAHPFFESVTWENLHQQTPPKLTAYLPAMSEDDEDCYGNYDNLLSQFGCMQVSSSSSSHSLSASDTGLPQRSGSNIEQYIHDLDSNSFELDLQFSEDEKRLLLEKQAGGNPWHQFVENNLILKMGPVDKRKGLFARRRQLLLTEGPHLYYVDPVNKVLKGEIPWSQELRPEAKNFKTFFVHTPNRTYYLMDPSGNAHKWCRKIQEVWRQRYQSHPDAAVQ
Assay: PDK1 IMAP fluorescence polarization assay (inhibition of peptide substrate phosphorylation)
Assay type: biochemical

[1] = Table 6, 10 nM PDK1 enzyme, 100 nM peptide substrate, 100 nM PIFtide, 2.5 uM ATP, 1.5 hours

| SMILES | pIC50 [1] | pIC50 (Table 10, compounds 97-132) |
| --- | --- | --- |
| CNC1(C(N)=O)CCN(c2ccc(N)cc2NC(=O)c2ncc[nH]2)CC1 [Compound 2, 1-[4-amino-2-[(1H-imidazol-2-ylcarbonyl)amino]phenyl]-4-(methylamino)-4-piperidinecarboxamide] | 5.30 to 6.00 |  |
| NCC1CCN(c2c(F)cccc2NC(=O)c2nc(-c3cc(NCc4ccccc4)nc(N)n3)c[nH]2)CC1 [Compound 69, N-[2-[4-(aminomethyl)-1-piperidinyl]-3-fluorophenyl]-4-[2-amino-6-[(phenylmethyl)amino]-4-pyrimidinyl]-1H-imidazole-2-carboxamide] | 7.30 to 9.00 |  |
| NCC1CCN(c2c(NC(=O)c3nc(-c4ccnc(N)c4)c[nH]3)ccc(F)c2F)CC1 [Compound 28, N-[2-[4-(aminomethyl)-1-piperidinyl]-3,4-difluorophenyl]-4-(2-amino-4-pyridinyl)-1H-imidazole-2-carboxamide] | 6.60 to 7.29 |  |
| Cc1cc(-c2c[nH]c(C(=O)Nc3cccc(F)c3N3CCC(C(=O)NCC(O)C(F)(F)F)CC3)n2)ccn1 (stereo not shown) [Compound 62, 1-[2-fluoro-6-[[[4-(2-methyl-4-pyridinyl)-1H-imidazol-2-yl]carbonyl]amino]phenyl]-N-(3,3,3-trifluoro-2-hydroxypropyl)-4-piperidinecarboxamide] | 5.30 to 6.00 |  |
| N[C@@H]1CCCN(c2c(F)cccc2NC(=O)c2nc(Br)c[nH]2)C1 [Compound 12, N-[2-(3(R)-amino-1-piperidinyl)-3-fluorophenyl]-4-bromo-1H-imidazole-2-carboxamide] | 6.60 to 7.29 |  |
| NCC1CCN(c2c(F)cccc2NC(=O)c2nc(-c3cc(N[C@@H](CO)c4ccccc4)nc(N)n3)c[nH]2)CC1 [Compound 72, 4-[2-amino-6-[[2-hydroxy-1(R)-phenylethyl]amino]-4-pyrimidinyl]-N-[2-[4-(aminomethyl)-1-piperidinyl]-3-fluorophenyl]-1H-imidazole-2-carboxamide] | 7.30 to 9.00 |  |
| CN(C)CC1CCN(c2ccccc2NC(=O)c2nc(-c3ccnc(N)c3)c[nH]2)CC1 [Compound 40, 4-(2-amino-4-pyridinyl)-N-[2-[4-[(dimethylamino)methyl]-1-piperidinyl]phenyl]-1H-imidazole-2-carboxamide] | 6.00 to 6.60 |  |
| N[C@@H]1CCCN(c2c(F)cccc2NC(=O)c2nc(C3=CCOCC3)c[nH]2)C1 [Compound 22, N-[2-(3(R)-amino-1-piperidinyl)-3-fluorophenyl]-4-(3,6-dihydro-2h-pyran-4-yl)-1H-imidazole-2-carboxamide] | 6.00 to 6.60 |  |
| Cc1ccc(C)c(-c2c[nH]c(C(=O)Nc3cccc(F)c3N3CCC(CN)CC3)n2)c1 [Compound 37, N-[2-[4-(aminomethyl)-1-piperidinyl]-3-fluorophenyl]-4-(2,5-dimethylphenyl)-1H-imidazole-2-carboxamide] | 5.30 to 6.00 |  |
| CC(=O)Nc1cc(-c2c[nH]c(C(=O)Nc3cccc(F)c3N3CCC(CN)CC3)n2)ccn1 [Compound 33, 4-[2-(acetylamino)-4-pyridinyl]-N-[2-[4-(aminomethyl)-1-piperidinyl]-3-fluorophenyl]-1H-imidazole-2-carboxamide] | 6.60 to 7.29 |  |
| Cc1cc(-c2c[nH]c(C(=O)Nc3cccc(F)c3N3CC4CNCC4C3)n2)ccn1 (stereo not shown) [Compound 58, N-[3-fluoro-2-(hexahydropyrrolo[3,4-c]pyrrol-2(1H)-yl)phenyl]-4-(2-methyl-4-pyridinyl)-1H-imidazole-2-carboxamide] | 5.30 to 6.00 |  |
| N[C@@H]1CCCN(c2c(F)cccc2NC(=O)c2nc(-c3ccnc(-n4cccn4)c3)c[nH]2)C1 [Compound 39, N-[2-(3(R)-amino-1-piperidinyl)-3-fluorophenyl]-4-[2-(1H-pyrazol-1-yl)-4-pyridinyl]-1H-imidazole-2-carboxamide] | 6.00 to 6.60 |  |
| Cc1cc(-c2c[nH]c(C(=O)Nc3cccc(F)c3N3CCC(C(=O)N[C@H](C)c4ccccc4)CC3)n2)ccn1 [Compound 65, 1-[2-fluoro-6-[[[4-(2-methyl-4-pyridinyl)-1H-imidazol-2-yl]carbonyl]amino]phenyl]-N-(1(R)-phenylethyl)-4-piperidinecarboxamide] | 5.30 to 6.00 |  |
| Nc1ccc(N2CCC[C@@H](N)C2)c(NC(=O)c2nc(Br)c[nH]2)c1 [Compound 16, N-[5-amino-2-(3(R)-amino-1-piperidinyl)phenyl]-4-bromo-1H-imidazole-2-carboxamide] | 6.60 to 7.29 |  |
| NCC1CCN(c2c(F)cccc2NC(=O)c2nc(-c3ccnc(NCc4ccccc4)c3)c[nH]2)CC1 [Compound 35, N-[2-[4-(aminomethyl)-1-piperidinyl]-3-fluorophenyl]-4-[2-[(phenylmethyl)amino]-4-pyridinyl]-1H-imidazole-2-carboxamide] | 7.30 to 9.00 |  |

Results, then the compound that gave them:

| pIC50 [1] | pIC50 (Table 10, compounds 97-132) | SMILES |
| --- | --- | --- |
| 6.00 to 6.60 |  | CNCCCCNC(=O)C1CCN(c2c(F)cccc2NC(=O)c2nc(-c3ccnc(C)c3)c[nH]2)CC1 [Compound 85, 1-[2-fluoro-6-[[[4-(2-methyl-4-pyridinyl)-1H-imidazol-2-yl]carbonyl]amino]phenyl]-N-[4-(methylamino)butyl]-4-piperidinecarboxamide] |
| 5.30 to 6.00 |  | Cc1cc(-c2c[nH]c(C(=O)Nc3cccc(F)c3N3CCC(C(N)=O)CC3)n2)ccn1 [Compound 82, 1-[2-fluoro-6-[[[4-(2-methyl-4-pyridinyl)-1H-imidazol-2-yl]carbonyl]amino]phenyl]-4-piperidinecarboxamide] |
|  | 7.30 to 9.00 | CNc1nc(-c2c[nH]c(C(=O)Nc3cccc(F)c3N3CCC(CN)CC3)n2)cc(N2CCNC[C@H]2C)n1 [Compound 120, (R)—N-(2-(4-(aminomethyl)piperidin-1-yl)-3-fluorophenyl)-4-(2-(methylamino)-6-(2-methylpiperazin-1-yl)pyrimidin-4-yl)-1H-imidazole-2-carboxamide] |
| 5.30 to 6.00 |  | Cc1cc(-c2c[nH]c(C(=O)Nc3cccc(F)c3N3CCC(C(=O)N4CC[C@@H](F)C4)CC3)n2)ccn1 [Compound 92, N-[3-fluoro-2-[4-[(3(R)-fluoro-1-pyrrolidinyl)carbonyl]-1-piperidinyl]phenyl]-4-(2-methyl-4-pyridinyl)-1H-imidazole-2-carboxamide] |
|  | 6.60 to 7.29 | CNc1nc(-c2c[nH]c(C(=O)Nc3ccccc3N3CCNCC3)n2)cc(N2CCN(C(C)=O)CC2)n1 [Compound 103, 4-(6-(4-acetylpiperazin-1-yl)-2-(methylamino)pyrimidin-4-yl)-N-(2-(piperazin-1-yl)phenyl)-1H-imidazole-2-carboxamide] |
|  | 7.30 to 9.00 | CNc1nc(-c2c[nH]c(C(=O)Nc3ccccc3OC3CCNCC3)n2)cc(N2CC(C(=O)NC3CCCCC3)CCC2C)n1 (racemic) [Compound 108, N-cyclohexyl-6-methyl-1-(2-(methylamino)-6-(2-(2-(piperidin-4-yloxy)phenylcarbamoyl)-1H-imidazol-4-yl)pyrimidin-4-yl)piperidine-3-carboxamide] |
|  | 7.30 to 9.00 | CNc1nc(-c2c[nH]c(C(=O)Nc3cccc(F)c3N3CCC(CN)CC3)n2)cc(N2CCC(CN)CC2)n1 [Compound 125, 4-(6-(4-(aminomethyl)piperidin-1-yl)-2-(methylamino)pyrimidin-4-yl)-N-(2-(4-(aminomethyl)piperidin-1-yl)-3-fluorophenyl)-1H-imidazole-2-carboxamide] |
| 7.30 to 9.00 |  | NCC1CCN(c2c(F)cccc2NC(=O)c2nc(-c3cc(NCc4ccc(F)c(F)c4)nc(N)n3)c[nH]2)CC1 [Compound 75, 4-[2-amino-6-[[(3,4-difluorophenyl)methyl]amino]-4-pyrimidinyl]-N-[2-[4-(aminomethyl)-1-piperidinyl]-3-fluorophenyl]-1H-imidazole-2-carboxamide] |
| 6.60 to 7.29 |  | Cc1cc(-c2c[nH]c(C(=O)Nc3cccc(F)c3N3CCC(C(=O)NC4CCCCC4N)CC3)n2)ccn1 (stereo not shown) [Compound 84, N-(2-aminocyclohexyl)-1-[2-fluoro-6-[[[4-(2-methyl-4-pyridinyl)-1H-imidazol-2-yl]carbonyl]amino]phenyl]-4-piperidinecarboxamide] |
| 6.00 to 6.60 |  | Cc1cc(-c2c[nH]c(C(=O)Nc3cccc(F)c3N3CCC(C(=O)N4CCOC(CCO)C4)CC3)n2)ccn1 (stereo not shown) [Compound 90, N-[3-fluoro-2-[4-[[2-(2-hydroxyethyl)-4-morpholinyl]carbonyl]-1-piperidinyl]phenyl]-4-(2-methyl-4-pyridinyl)-1H-imidazole-2-carboxamide] |
| 6.00 to 6.60 |  | COc1ccc(CNc2cc(-c3c[nH]c(C(=O)Nc4cccc(F)c4N4CCC(CN)CC4)n3)nc(N)n2)cc1OC [Compound 76, 4-[2-amino-6-[[(3,4-dimethoxyphenyl)methyl]amino]-4-pyrimidinyl]-N-[2-[4-(aminomethyl)-1-piperidinyl]-3-fluorophenyl]-1H-imidazole-2-carboxamide] |
| 6.60 to 7.29 |  | NCC1CCN(c2c(F)cccc2NC(=O)c2nc(-c3cc(NCc4ccc(F)cc4)ncn3)c[nH]2)CC1 [Compound 73, N-[2-[4-(aminomethyl)-1-piperidinyl]-3-fluorophenyl]-4-[6-[[(4-fluorophenyl)methyl]amino]-4-pyrimidinyl]-1H-imidazole-2-carboxamide] |
| 6.00 to 6.60 |  | CCNCCNC(=O)C1CCN(c2c(F)cccc2NC(=O)c2nc(-c3ccnc(C)c3)c[nH]2)CC1 [Compound 86, N-[2-(ethylamino)ethyl]-1-[2-fluoro-6-[[[4-(2-methyl-4-pyridinyl)-1H-imidazol-2-yl]carbonyl]amino]phenyl]-4-piperidinecarboxamide] |
